Experimental data published in PMC9181938, “Fluorinated Analogues of Lepidilines A and C: Synthesis and Screening of Their Anticancer and Antiviral Activity” (Molecules, 2022).
Where a name gives a salt, the structure may show the parent alone. Read-outs that look alike come from different tables or passages of the source.

Columns and labels:
[1] = Cytotoxicity screening at 10 µM (MTT); assay type: cell-based, Human; conditions: human, HeLa cells, read-out: Cell line (viability %) HeLa
[2] = test system: Human herpesvirus 5 (HCMV); assay: Antiviral screening at 10 µM, plaque reduction; assay type: cell-based; conditions: Human betaherpesvirus 5, antiviral screening, HCMV-infected cells, read-out: Cell line (viability %) HCMV
Experimental: (§1) Antiviral properties of compounds 1a, 1c, 1a[PF6], 1c[PF6], 9b[PF6], 9c[PF6], 10a–10d, 2a, and 2b were assessed against five viruses: Human herpesvirus 1 (HSV-1, VR-539), Human parainfluenza virus type 3 (HPIV-3, VR-93), Human adenovirus 5 (AdV5, VR-5), Human herpesvirus 5 (HCMV, VR-977), and Encephalomyocarditis virus (EMCV, VR-1479). Viruses were purchased from the American Type Culture Collection (ATCC, Manassas, VA, USA).
(§2) All tested compounds were dissolved in DMSO (dimethyl sulfoxide, Sigma-Aldrich, Darmstadt, Germany) and then suspended in Minimum Essential Medium (MEM; Sigma-Aldrich, Darmstadt, Germany) supplemented with 2% heat-inactivated fetal bovine serum (FBS; Sigma-Aldrich, Darmstadt, Germany), 2 mM L-glutamine (Sigma-Aldrich, Darmstadt, Germany), and 100 units/mL penicillin G with […] streptomycin (Sigma-Aldrich, Darmstadt, Germany).
(§3) Vero, LLC-MK2, NCTC clone 929, MRC-5, and HeLa cells were propagated in Minimum Essential Medium (MEM; Sigma-Aldrich, Darmstadt, Germany) supplemented with 10% heat-inactivated fetal bovine serum (FBS; Sigma-Aldrich, Darmstadt, Germany) and 100 units/mL penicillin G with […] streptomycin (Sigma-Aldrich, Darmstadt, Germany). Upon reaching 80–90% confluency, cells were harvested with 0.25% trypsin in 1 mM EDTA (Life Technologies, Warsaw, Poland) and seeded onto 96-well microplates at 2 × 10^5 cells/mL. After overnight incubation of cells at 37 °C in a humidified atmosphere containing 5% CO2, the culture medium was removed, and cells were inoculated with the respective virus solution in MEM supplemented with 2% FBS and antibiotics (HSV-1 MOI 0.005, 1000 virions/mL; HPIV-3 MOI 0.01, 2000 virions/mL; AdV5 MOI 0.005, 1000 virions/mL, EMCV MOI 0.005, 1000 virions/mL, HCMV 20 PFU (plaque forming units) per well). After a 1-h (HSV-1, HPIV-3, AdV5, and EMCV) or 2-h adsorption period (HCMV), the residual virus was removed, and the infected cells were further incubated with a 100 μL freshly prepared solution of tested compounds diluted with a maintenance medium supplemented with 2% FBS to obtain compound concentrations of 10 µM. The final concentration of DMSO in the medium was 0.1%. All experiments were carried out in triplicate. The cells monolayers were incubated with the compounds at 37 °C in a humidified atmosphere containing 5% CO2 until the typical cytopathic effect (CPE) was visible. Viral infection was evaluated by the MTT assay or plaque reduction assay (HCMV). After incubation with drugs, the cells were treated with 3-(4,5-dimethylthiazol-2-yl)-2,5-diphenyltetrazolium bromide dye solution (MTT, Sigma-Aldrich, Darmstadt, Germany) (25 μL, 5 mg/mL) for 2 h and lysed with solvent solution (100 μL) containing: DMF (Sigma-Aldrich, Darmstadt, Germany) (45 mL), SDS (Sigma-Aldrich, Darmstadt, Germany) (13.5 g), and distilled water (55 mL). After overnight incubation at 37 °C, the optical density at 550 nm and a reference wavelength of 670 nm were measured on a microplate spectrophotometer, Varioskan Lux (Thermo Fisher Scientific, Waltham, MA, USA). The number of HCMV plaques was counted under an inverted microscope Olympus IX73 (Olympus, Tokyo, Japan).

[3] = test system: Human adenovirus 5 (AdV5); assay: Antiviral screening at 10 µM; assay type: cell-based; conditions: Human mastadenovirus C, AdV5-infected cells, read-out: Cell line (viability %) AdV5
Experimental: as §1, §2, §3

[4] = test system: Human herpesvirus 1 (HSV-1); assay: Antiviral screening at 10 µM; assay type: cell-based; conditions: Human alphaherpesvirus 1, antiviral screening, HSV-1-infected cells, read-out: Cell line (viability %) HSV-1
Experimental: as §1, §2, §3

[5] = test system: Encephalomyocarditis virus (EMCV); assay: Antiviral screening at 10 µM; assay type: cell-based; conditions: Cardiovirus A, EMCV-infected cells, read-out: Cell line (viability %) EMCV
Experimental: as §1, §2, §3

[6] = test system: Human parainfluenza virus type 3 (HPIV-3); assay: Antiviral screening at 10 µM; assay type: cell-based; conditions: Human respirovirus 3, antiviral screening, HPIV-3-infected cells, read-out: Cell line (viability %) HPIV-3
Experimental: as §1, §2, §3

[7] = Cytotoxicity screening at 10 µM (MTT); assay type: cell-based, Cercopithecus aethiops; conditions: Cercopithecus aethiops, Vero cells, read-out: Cell line (viability %) Vero
[8] = Cytotoxicity screening at 10 µM (MTT); assay type: cell-based, Human; conditions: human, MRC-5 cells, read-out: Cell line (viability %) MRC-5
[9] = Cytotoxicity screening at 10 µM (MTT); assay type: cell-based, Macaca mulatta; conditions: Macaca mulatta, LLC-MK2 cells, read-out: Cell line (viability %) LLC-MK2
[10] = Cytotoxicity screening at 10 µM (MTT); assay type: cell-based, Mus musculus; conditions: Mus musculus, NCTC clone 929 cells, read-out: Cell line (viability %) NCTC clone 929
[11] = test system: Human herpesvirus 5 (HCMV); assay: Antiviral activity assay (0.1–1000 µM), IC50, plaque reduction; assay type: cell-based; conditions: Human betaherpesvirus 5, 20 PFU/well
Experimental: as §1, with “1e–1g, 1e[PF6], 8a–8d,” for “1a, 1c, 1a[PF6], 1c[PF6], 9b[PF6], 9c[PF6], 10a–10d, 2a,”, “9a” for “2b”
as §2
(§4) Investigated cells were propagated in Minimum Essential Medium (MEM; Sigma-Aldrich, Darmstadt, Germany) supplemented with 10% heat-inactivated fetal bovine serum (FBS; Sigma-Aldrich, Darmstadt, Germany) and 100 units/mL penicillin G with […] streptomycin (Sigma-Aldrich, Darmstadt, Germany). After reaching 80–90% confluency, cells were harvested with trypsin (Life Technologies, Warsaw, Poland) and seeded into 96-well microplates at 2 × 10^5 cells/mL after overnight incubation of cells at 37 °C in a humidified atmosphere containing 5% CO2.
(§5) The culture medium was removed from confluent cells grown in 96-well microplates, and the cells were inoculated with virus solutions in MEM supplemented with 2% FBS and antibiotics (HSV-1 MOI 0.005, 1000 virions/mL; HPIV-3 MOI 0.01, 2000 virions/mL; AdV5 MOI 0.005, 1000 virions/mL; EMCV 0.005, 1000 virions/mL; HCMV 20 PFU/well (plaque-forming units per well). After a 1-h (HSV-1, HPIV-3, AdV5, and EMCV) or 2-h adsorption period (HCMV), residual viral particles were removed, and infected cells were further incubated with MEM supplemented with 2% FBS containing compound concentrations in the range from 0.1 to 1000 µM [38]. All experiments were carried out in triplicate. The cell monolayers were incubated with the investigated compounds at 37 °C in a humidified atmosphere containing 5% CO2 until a cytopathic effect (CPE) was visible. Viral infection was evaluated by the MTT assay (as described previously) or plaque reduction assay. HCMV plaques were counted under an inverted microscope, Olympus IX73 (Olympus, Tokyo, Japan). Antiviral activity was expressed as the concentration required to reduce the number of viral plaques to 50% of the control (virus-infected but untreated).

[12] = test system: Human adenovirus 5 (AdV5); assay: Antiviral activity assay (0.1–1000 µM), IC50; assay type: cell-based; conditions: Human mastadenovirus C
Experimental: as §1, with “1e–1g, 1e[PF6], 8a–8d,” for “1a, 1c, 1a[PF6], 1c[PF6], 9b[PF6], 9c[PF6], 10a–10d, 2a,”, “9a” for “2b”
as §2, §4, §5

[13] = test system: Human herpesvirus 1 (HSV-1); assay: Antiviral activity assay (0.1–1000 µM), IC50; assay type: cell-based; conditions: Human alphaherpesvirus 1; HSV-1, MOI 0.005
Experimental: as §1, with “1e–1g, 1e[PF6], 8a–8d,” for “1a, 1c, 1a[PF6], 1c[PF6], 9b[PF6], 9c[PF6], 10a–10d, 2a,”, “9a” for “2b”
as §2, §4, §5

[14] = test system: Encephalomyocarditis virus (EMCV); assay: Antiviral activity assay (0.1–1000 µM), IC50; assay type: cell-based; conditions: Cardiovirus A, MOI 0.005, read-out: IC50 EMCV
Experimental: as §1, with “1e–1g, 1e[PF6], 8a–8d,” for “1a, 1c, 1a[PF6], 1c[PF6], 9b[PF6], 9c[PF6], 10a–10d, 2a,”, “9a” for “2b”
as §2, §4, §5

[15] = test system: Human parainfluenza virus type 3 (HPIV-3); assay: Antiviral activity assay (0.1–1000 µM), IC50; assay type: cell-based; conditions: Human respirovirus 3, HPIV-3, MOI 0.01; read-out: IC50 HPIV-3
Experimental: as §1, with “1e–1g, 1e[PF6], 8a–8d,” for “1a, 1c, 1a[PF6], 1c[PF6], 9b[PF6], 9c[PF6], 10a–10d, 2a,”, “9a” for “2b”
as §2, §4, §5

[16] = Cytotoxicity MTT assay (0.1–1000 µM), CC50; assay type: cell-based, Human; conditions: human, HeLa cells

IC50 [11] | IC50 ([12]; AdV5, MOI 0.005, read-out: IC50 AdV5) | IC50 [13] | IC50 [14] | IC50 [15] | melting point | SMILES | viability at 48 h, 10 µM [1] | viability at 10 µM [2] | viability at 10 µM [3] | viability at 10 µM [4] | viability at 10 µM [5] | viability at 10 µM [6] | viability at 48 h, 10 µM [7] | viability at 48 h, 10 µM [8] | viability at 48 h, 10 µM [9] | viability at 48 h, 10 µM [10] | IC50 ([12]; Table S4, range 0.1-1000 µM, AdV5, read-out: IC50 (M) AdV5) | CC50 at 48 h ([16]; MTT, 48 h, read-out: CC50 Cancer Cell Lines HeLa) | CC50 at 48 h ([16]; Table S2, range 0.1-1000 µM, read-out: Cell line (CC50 M) HeLa)
 |  |  |  |  |  | c1c[n+](OC23CC4CC(CC(C4)C2)C3)cn1OC12CC3CC(CC(C3)C1)C2 [Compound 2b] | 7.5% | 2.8% | 17.1% | 14.1% | 9.6% | 8.7% | 15.2% | 12.7% | 7.8% | 6.6% |  |  | 
 |  |  |  |  |  | COc1cccc(Cn2c[n+](Cc3ccccc3)c(-c3ccccc3)c2-c2ccccc2)c1 [9c[PF6]] | 7.1% | 1.9% | 14.4% | 13.3% | 9.4% | 12.8% | 6.6% | 12.6% | 7.6% | 6.5% |  |  | 
> 150 µM | > 8e-08 M | > 56.3 µM | > 148 µM | > 150 µM |  | Cc1c(C)[n+](Cc2ccccc2)cn1Cc1cccc(F)c1 [1e[PF6], 1-Benzyl-3-(3-fluorobenzyl)-4,5-dimethylimidazolium hexafluorophosphate] |  |  |  |  |  |  |  |  |  |  |  |  | 
 |  |  |  |  | 156 to 158 °C | Cc1cc(C)cc(CO[n+]2cn(Cc3cccc(C(F)(F)F)c3)c(-c3ccccc3)c2-c2ccccc2)c1.[Br-] |  |  |  |  |  |  |  |  |  |  |  |  | 
 |  |  |  |  | 107 to 110 °C | FC(F)(F)c1cccc(Cn2c[n+](OCc3ccccc3)c(-c3ccccc3)c2-c2ccccc2)c1.[Br-] |  |  |  |  |  |  |  |  |  |  |  |  | 
 |  |  |  |  |  | c1c[n+](C23CC4CC(CC(C4)C2)C3)cn1C12CC3CC(CC(C3)C1)C2 [Compound 2a, 1,3-diadamantyl imidazolium bromide, reference compound] | 23% | 9.7% | 50.2% | 13.9% | 7.1% | 8.3% | 7.9% | 73.7% | 7.8% | 8.9% |  |  | 
 |  |  |  |  |  | S=c1n(Cc2ccccc2)c(-c2ccccc2)c(-c2ccccc2)n1Cc1ccccc1 [Compound 10c] | 7.8% | 7.1% | 16% | 14.7% | 8.5% | 10.9% | 11.4% | 73.8% | 15.8% | 35.5% |  |  | 
 |  |  |  |  |  | COc1cccc(Cn2c(-c3ccccc3)c(-c3ccccc3)n(Cc3ccccc3)c2=S)c1 [Compound 10d] | 74% | 1.9% | 68% | 14.6% | 8.5% | 10.6% | 95.8% | 96.8% | 53.6% | 91.5% | > 0.000318 M | < 400 µM | 318 ± 47.5 µM
 |  |  |  |  |  | c1ccc(Cn2c[n+](Cc3ccccc3)c(-c3ccccc3)c2-c2ccccc2)cc1 [9b[PF6]] | 6.8% | 6.3% | 13.9% | 11.7% | 9.3% | 12% | 6.7% | 12.8% | 8% | 4.1% |  |  | 
 |  |  |  |  | 110 to 112 °C | Cc1c(C)[n+](Cc2ccccc2)cn1Cc1cccc(F)c1 (as salt: phosphate) [1e[PF6]] [1-Benzyl-3-(3-fluorobenzyl)-4,5-dimethylimidazolium hexafluorophosphate] |  |  |  |  |  |  |  |  |  |  |  |  | 
 |  |  |  |  | 132 to 134 °C | COc1cccc(CO[n+]2cn(Cc3cccc(C(F)(F)F)c3)c(-c3ccccc3)c2-c2ccccc2)c1.[Br-] |  |  |  |  |  |  |  |  |  |  |  |  | 
 |  |  |  |  |  | COc1cccc(Cn2c(C)c(C)n(Cc3ccccc3)c2=S)c1 [Compound 10b] | 13.3% | 1.9% | 39.5% | 16.5% | 8.1% | 7.9% | 29.1% | 100% | 9.1% | 59% |  |  | 
